The subject of assay [1] is HPV-16 immortalized human keratinocyte cell line. The experiment in a line: Cell line test (MTT), keratinocyte proliferation. In kind it is cell-based. The conditions noted are these: HPV-16 immortalized human keratinocytes, 3 days incubation; read-out: MTT assay IG50. The text has this:
3-[4′,5′-Dimethylthiazol-2′-yl]-2,5-diphenyltetrazolium bromide (MTT), dimethyl sulphoxide (DMSO), isopropranol, foetal calf serum, and trypan blue were purchased from Sigma-Aldrich. Trypsin 250 was purchased from DIFCO. Ethylenediaminetetraacetic acid (EDTA), glucose, sodium phenol red, sodium chloride, potassium chloride, sodium hydrogen carbonate, potassium dihydrogen phosphate, and disodium hydrogen phosphate were purchased from BDH. Keratinocyte-SFM was purchased from GIBCO. For spectroscopic measurements, MRX Microplate Reader was used, which was controlled by Revelation Version 3.04.
The following solutions were prepared for use in the cell line test (MTT). • 1. Sodium chloride (8 g), potassium chloride (0.2 g), disodium hydrogen phosphate (1.15 g) and potassium dihydrogen phosphate (0.2 g) were dissolved in deionized water (1 L). This PBS solution was warmed to 37° C. at the time of use. • 2. Trypsin 250 (2.5 g), EDTA (0.2 g), glucose (1.0 g), potassium chloride (0.4 g), sodium chloride (8.0 g), sodium phenol red (0.002 g), and sodium hydrogen carbonate (0.58 g) were dissolved in deionized water (1 L). This solution was warmed to 37° C. at the time of use. • 3. Trypsin inhibitor solution was created by using feotal calf (1 ml) and was diluted in 100 ml of PBS. • 4. MTT powder (0.125 g) was dissolved in PBS buffer (25 ml) to give 5 mg/ml of MTT stock solution, which was stored at −20° C. and wrapped in foil to protect from light to create MTT stock solution. • 5. MTT stock solution was defrosted and diluted 1 in 10 in PBS buffer to give 0.5 mg/ml of working solution, which was prepared at the time of use to create an MTT working solution. • 5. Trypan blue solution was created by dissolving Trypan blue (0.04 g) in deionized water (10 ml).
The cell culture consisted of an HPV-16 immortalized human keratinocyte cell line from American Type Culture Collection (ATCC).
Cells were cultured in Serum-Free Keratinocyte Medium (Keratinocyte-SFM) supplemented with recombinant epidermal growth factor (rEGF) and bovine pituitary extract (BPE) in a T-75 flask under conditions of 5% C02 at 37° C. Fluid in the flask was changed with fresh complete medium every 3 days.
When cells grew to 60-80% confluence as determined under a microscope, the flask was washed with PBS. Small amount of trypsin-EDTA solution (1-2 ml) was added to the flask and incubated for 5 minutes at 37° C. When approximately 90% of the cells were dislodged, trypsin inhibitor solution (10 ml) was added to stop trypsin reaction. The cells were spun at 500 rpm for 10 minutes at room temperature. The cell pellet was gently resuspended in 10 ml of media. The basal cells were counted with a haemocytometer by adding trypan blue solution to determine viable cells. The cells were adjusted the density to 1×10^5 cells/mL in media.
A stock solution of each compound was prepared by dissolving compound (20 mg) in DMSO (1 ml), to give 20 mg/mL of stock solution.
A working solution was prepared by diluting a stock solution (20 μl) into media (1.98 ml) to give 200 μg/mL of working solution.
The following steps were performed to carry out the MMT experiment. 100 μl of resuspended cell suspension was added to test wells in 96-well plate, omitting column 11. Media was aspirated from each well after plate was incubated for 24 hours at 37° C., 5% CO2, then wells were washed with PBS. 100 μl of media containing 1% DMSO was added to each test well, omitting column 2. 200 μl of working solution of compound was added to each the wells, B2 to G2. 100 μl of solution was transferred to perform serial dilutions across the plate from column 2 up to column 9, and 100 μl of solution was discard from column 9. The plate was incubated for 3 days at 37° C., 5% C02. Media was removed, and wells were washed with PBS. Then 200 μl of MTT working solution was added to each well. After the plate was incubated for 2 hours at 37° C., MTT solution was removed and wells were washed with PBS. […]
For orientation: Tetrazolium assays rely on reduction of a dye to a coloured formazan, in cell work by metabolically active cells.

Assay [2] relates to lipid peroxidation in bovine brain extract liposomes (hydroxyl radicals). The experiment in a line: Antioxidant test, TBA assay (lipid peroxidation). In kind it is biochemical. The conditions noted are these: brain extract liposomes, FeCl3/ascorbic acid, 37° C. 30 min, absorbance 532 nm. The protocol: Ascorbic acid and propylgallate were purchased from Aldrich. N-Butanol and ethanol were purchased from BDH. Butylated hydroxytoluene (BHT), bovine brain extract, FeCl3, thiobarbituric acid (TBA) and PBS (phosphate buffered saline) tablets were purchased from Sigma. For spectroscopic measurements, a UNICAM UVNIS Spectrometer (UV2) was used. A well-controlled water bath was utilized for incubating the test system at the required temperatures. Plastic falcon tubes were used to accommodate the assay. Accurate pipettes were used to dispense the reagents.
The following liposomes and reagents were prepared in order to carry out the experiments. • 1. Brain extract (50 mg) was weighed into a clean universal container. About 7 glass balls and 10 cm^3 of PBS were added. The mixture was sonicated in an ice-water bath until the lipid was suspended and the suspension was homogeneous and milky in appearance. The suspension was kept cool during the sonication, although care was taken not to overfill the bath with ice as the sonication becomes relatively ineffective. • 2. Ascorbic acid (0.0176 g) was dissolved in deionised water and diluted in 100 cm^3 of volumetric flask. • 3. Ferric chloride hexahydrate (0.0270 g) was dissolved in deionized water and diluted in 100 cm^3 of volumetric flask. • 4. Sodium hydroxide (1 g) was dissolved in 500 cm^3 of deionized water. • 5. Phosphate buffered saline was prepared (PBS, pH=7.4). • 6. HCl (338 cm^3, 37%) was diluted with 162 cm^3 deionized water to give 500 cm^3 of 25% HCl. • 7. BHT (5 g) was dissolved in 250 cm^3 ethanol. • 8. TBA (5 g) was added to 500 cm^3, 50 mM NaOH, and the solution was heated with stirring to dissolve all the TBA. • 9. PG (0.1061 g) was dissolved in 500 cm^3 deionized water. • 10. A stock solution of test compound at 10 mg/cm^3 was prepared, the concentration depended on the estimated activity of the substance, and serial dilutions were made to obtain 5.0, 2.5, 1.25, 0.625, 0.3125 and 0.15625 mg/cm^3. The stock solution and these six dilutions were screened in the lipid peroxidation—TEA test, in attempt to obtain a dose response curve for antioxidant efficacy against concentration for the substance.
Sixty-eight centrifuge tubes were numbered. • 1. Test substance (0.1 cm^3) was added to tubes; 10 mg/cm^3 to No. 13-20 of tubes, 5 mg/cm^3 to No. 21-28, 2.5 mg/cm^3 to No. 29-36, 1.25 mg/cm^3 to No. 37-44, 0.625 mg/cm^3 to No. 45-52, 0.3125 mg/cm^3 to No. 53-60, 0.15625 mg/cm^3 to No. 61-68. • 2. PG (0.1 cm^3) was added to 9-12. • 3. Ethanol (0.1 cm^3) was added to No. 5-8. • 4. Deionized water (0.3 cm^3) was added to No. 1-4, deionized water (0.4 cm^3) was added to No. 17-20, 25-28, 33-36, 41-44, 49-52, 57-60, and 65-68. • 5. Liposome (0.2 cm^3) was added to No. 1-4, 5-8, 9-12, 13-16, 21-24, 29-32, 37-40, 45-48, 53-56 and 61-64. • 6. PBS (0.5 cm^3) was added to all tubes. • 7. Ferric chloride (0.1 cm^3, 1 mM) was added to No. 5-8, 9-12, 13-16, 21-24, 29-32, 37-40, 45-48, 53-56, and 61-64. • 8. Ascorbic acid (0.1 cm^3, 1 mM) was added to No. 5-8, 9-12, 13-16, 21-24, 29-32, 37-40, 45-48, 53-56 and 61-64. • 9. The tubes were incubated at 37° C. for 30 min. • 10. BHT (0.1 cm^3, 2%), TBA (0.5 cm^3, 1%) and HCl (0.5 cm^3, 25%) were added to all tubes. • 11. The tubes were heated at 85-90° C. for […]. • 12. The tubes were removed from heater and cooled. • 13. N-Butanol (2.5 cm^3) was added to all tubes. The tubes were then shaken to mix and spun at 3500 rpm at room temperature for 10 min. • 14. N-Butanol (2.5 cm^3) was removed and placed in cuvettes. • 15. Absorbance at 532 nm on a spectrophotometer was recorded, using n-butanol as blank. • 16. The mean and standard deviation were calculated. The % inhibition was calculated using equation (1).
[formula] • All data are expressed and mean±SEM (n=4). % inhibition was used to construct the graph and calculate IC50.

Among the data in patent US8258173B2, “Melatonin derivatives and their use as antioxidants” (University of Sunderland, priority 2006, dated 2012) are IC50 values, retold here.

Turning to `COc1ccc(N)c(C(=O)CCNC(C)=O)c1` [AMK, reference compound], the results for the IC50 in assay [1] and in assay [2] were 408 µM and 280 µM, respectively.
